{
  "source": "patent US7713926B2",
  "about": "“Method of producing partial peptide of enolase protein from Plasmodium falciparum” (National University Corporation Gunma University, priority 2004, dated 2010)",
  "test_system": "antibodies existing in sera from Plasmodium falciparum malaria patients and non-infected individuals",
  "assay": "Fluorescent ELISA of human sera on plate-fixed peptide compound (antibody level)",
  "format": "binding",
  "conditions": "peptide fixed on plastic plate as antigen",
  "protocol": "An antigen solution was prepared by dissolving 500 μg of the peptide compound (SEQ ID NO: 13) synthesized in Example 10 in 100 μl of dimethyl sulfoxide and by subsequently adding 1900 μl of a 0.05 M carbonate buffer (pH 9.6). The prepared antigen solution was dispensed by […] in each of […] on a plastic plate for fixation of the peptide compound.\nThe sera collected from Plasmodium falciparum malaria patients under informed consent at hospitals in Japan were used as subject sera, and the sera collected from non-infected individuals under informed consent in Japan were used as control sera. The subject sera and the control sera were individually added to the wells on the plastic plate to allow the antibodies existing in the respective sera to react with the peptide compound (SEQ ID NO: 13).\nAfter removal of the serum, an enzyme-labeled secondary antibody against human immunoglobulin was added to each well for the immunological reaction. […] The measured antibody levels were expressed by relative fluorescence unit (RFU values).\nFIG. 7 is a graph showing antibody levels of sera (1-7) from Plasmodium falciparum-infected patients and those of sera (8-12) from non-infected individuals (for the purpose of comparison) measured by the fluorescent ELISA method with the synthesized peptide compound (SEQ ID NO: 13). […]",
  "data": [
    {"substance": "H-Glu-Glu-Glu-Glu-Ala-Ser-Glu-Phe-Tyr-Asn-Ser-Glu-Asn-Lys-Thr-Tyr-Asp-Leu-Asp-Phe-Lys-Thr-Pro-Asn-Asn-Asp-Gly-Gly-OH (H-EEEEASEFYNSENKTYDLDFKTPNNDGG-OH) [SEQ ID NO: 13, partial peptide of enolase from Plasmodium falciparum, used as ELISA antigen]", "values": [
      {"measurement": "average antibody level of the non-infected individuals", "setting": "control sera (8-12) from non-infected individuals, same fluorescent ELISA", "value": 67, "unit": "RFU"},
      {"measurement": "average antibody level of the malaria patients", "setting": "sera (1-7) from Plasmodium falciparum-infected patients, enzyme-labeled secondary antibody against human immunoglobulin, 4-methylumbelliferyl phosphate", "value": 181, "unit": "RFU"}
    ]}
  ]
}
